# Source: patent publication US10570184B2, “GLP-1/glucagon receptor co-agonists for medical use” (Novo Nordisk A/S, priority 2014, dated 2020)
# Starred links: 1 amine or outer side, 2 acyl side, 3 side chain; linkers in the order of their positions; H or OH if unused. Non-standard residues stand in square brackets, D forms with d. Residues, ends and D or L forms follow the SMILES beside them. Groups on a side chain read outwards from the residue. *: point of attachment. C18 diacid = O=C(O)CCCCCCCCCCCCCCCCC(=O)*; γGlu = O=C(O)[C@H](CCC(=O)[*:2])N[*:1]; Ac4c = NC1(C(=O)O)CCC1; AEEA = NCCOCCOCC(=O)O; Aib = CC(C)(N)C(=O)O
# Target: T1, human GLP-1 receptor (Homo sapiens, UniProt P43220)
# T1 construct: expressed in transfected cells; host or cells: membranes of BHK cells (parent BHKTS13), clone FCW467-12A
# T1 sequence (P43220 24-463): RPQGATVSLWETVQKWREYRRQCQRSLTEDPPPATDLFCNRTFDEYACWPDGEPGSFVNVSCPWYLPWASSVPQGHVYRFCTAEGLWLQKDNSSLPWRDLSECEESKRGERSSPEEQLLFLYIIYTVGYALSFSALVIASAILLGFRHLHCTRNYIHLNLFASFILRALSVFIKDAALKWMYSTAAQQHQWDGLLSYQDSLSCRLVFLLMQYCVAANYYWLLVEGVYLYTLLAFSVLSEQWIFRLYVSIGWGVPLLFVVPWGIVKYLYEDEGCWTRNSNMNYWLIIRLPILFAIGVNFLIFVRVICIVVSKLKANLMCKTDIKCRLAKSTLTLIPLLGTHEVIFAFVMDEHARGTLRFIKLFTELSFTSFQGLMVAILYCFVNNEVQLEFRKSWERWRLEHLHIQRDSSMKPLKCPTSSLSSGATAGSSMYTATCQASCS
# Assay: Assay (I)(a) GLP-1 receptor activation, CRE luciferase reporter gene assay in BHK cells
# Type: cell-based
# Settings: without presence of serum albumin; read-out: GLP-1R EC50 (pM) [Assay (I)(a)]
# Method in brief: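 Stable BHK clone expressing human GLP-1 receptor with CRE-driven firefly luciferase, 5×10EE3 cells/well in medium with 2% ovalbumin and 0.2% Pluronic F-68. Compounds at 1×10EE-13 to 1×10EE-6 M final, 3 h at 37° C.; luminescence read, EC50 (pM) from four-parameter fit.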
row,SMILES,EC50 [pM]
1,"CC[C@H](C)[C@H](NC(=O)[C@H](CC(C)C)NC(=O)[C@H](Cc1c[nH]c2ccccc12)NC(=O)[C@H](CCC(N)=O)NC(=O)[C@@H](NC(=O)[C@H](Cc1ccccc1)NC(=O)[C@H](CC(=O)O)NC(=O)[C@H](CCCNC(=N)N)NC(=O)[C@H](C)NC(=O)[C@H](CCCNC(=N)N)NC(=O)[C@H](CCCNC(=N)N)NC(=O)[C@H](CO)NC(=O)[C@H](CCC(=O)O)NC(=O)[C@H](CC(C)C)NC(=O)[C@H](Cc1ccc(O)cc1)NC(=O)[C@H](CCCNC(=N)N)NC(=O)[C@H](CO)NC(=O)[C@H](Cc1ccc(O)cc1)NC(=O)[C@H](CC(=O)O)NC(=O)[C@H](CO)NC(=O)[C@@H](NC(=O)[C@H](Cc1ccccc1)NC(=O)[C@@H](NC(=O)CNC(=O)[C@H](CCC(N)=O)NC(=O)C1(NC(=O)[C@@H](N)Cc2c[nH]cn2)CCC1)[C@@H](C)O)[C@@H](C)O)C(C)C)C(=O)N[C@@H](CCCCNC(=O)CC[C@H](NC(=O)COCCOCCNC(=O)CC[C@H](NC(=O)COCCOCCNC(=O)CC[C@H](NC(=O)COCCOCCNC(=O)CC[C@H](NC(=O)CC[C@H](NC(=O)CCCCCCCCCCCCCCCCC(=O)O)C(=O)O)C(=O)O)C(=O)O)C(=O)O)C(=O)O)C(=O)N[C@H](C(N)=O)[C@@H](C)O [Chem. 36, N^ε28-[(4S)-4-carboxy-4-[[2-[2-[2-[[(4S)-4-carboxy-4-[[2-[2-[2-[[(4S)-4-carboxy-4-[[2-[2-[2-[[(4S)-4-carboxy-4-[[(4S)-4-carboxy-4-(17-carboxyheptadecanoylamino)butanoyl]amino]butanoyl]amino]ethoxy]ethoxy]acetyl]amino]butanoyl]amino]ethoxy]ethoxy]acetyl]amino]butanoyl]amino]ethoxy]ethoxy]acetyl]amino]butanoyl]-[Acb2,Arg12,Glu15,Arg20,Ile27,Lys28]-Glucagon amide] (H-H[Ac4c]QGTFTSDYSRYLESRRARDFVQWLIK([γGlu-AEEA-γGlu-AEEA-γGlu-AEEA-γGlu-γGlu-C18 diacid])T-NH2; N-terminus assumed)",4
2,"CC[C@H](C)[C@H](NC(=O)[C@H](CC(C)C)NC(=O)[C@H](Cc1c[nH]c2ccccc12)NC(=O)[C@H](CCC(N)=O)NC(=O)[C@@H](NC(=O)[C@H](Cc1ccccc1)NC(=O)[C@H](CC(=O)O)NC(=O)[C@H](CCCNC(=N)N)NC(=O)[C@H](C)NC(=O)[C@H](CCCNC(=N)N)NC(=O)[C@H](CCCNC(=N)N)NC(=O)[C@H](C)NC(=O)[C@H](CC(=O)O)NC(=O)[C@H](CC(C)C)NC(=O)[C@H](Cc1ccc(O)cc1)NC(=O)[C@H](CCCCN)NC(=O)[C@H](CO)NC(=O)[C@H](CC(C)C)NC(=O)[C@H](CC(=O)O)NC(=O)[C@H](CO)NC(=O)[C@@H](NC(=O)[C@H](Cc1ccccc1)NC(=O)[C@@H](NC(=O)CNC(=O)[C@H](CCC(N)=O)NC(=O)C(C)(C)NC(=O)[C@@H](N)Cc1c[nH]cn1)[C@@H](C)O)[C@@H](C)O)C(C)C)C(=O)N[C@@H](CC(N)=O)C(=O)N[C@@H](CCCCNC(=O)CC[C@H](NC(=O)CC[C@H](NC(=O)COCCOCCNC(=O)COCCOCCNC(=O)CC[C@H](NC(=O)CCCCCCCCCCCCCCCCC(=O)O)C(=O)O)C(=O)O)C(=O)O)C(N)=O [Chem. 20, N^ε29-[(4S)-4-carboxy-4-[[(4S)-4-carboxy-4-[[2-[2-[2-[[2-[2-[2-[[(4S)-4-carboxy-4-(17-carboxyheptadecanoylamino)butanoyl]amino]ethoxy]ethoxy]acetyl]amino]ethoxy]ethoxy]acetyl]amino]butanoyl]amino]butanoyl]-[Aib2,Leu10,Ala16,Arg20,Ile27,Lys29]-Glucagon amide] (H-H[Aib]QGTFTSDLSKYLDARRARDFVQWLINK([γGlu-γGlu-AEEA-AEEA-γGlu-C18 diacid])-NH2; N-terminus assumed)",4
3,"CC[C@H](C)[C@H](NC(=O)[C@H](CC(C)C)NC(=O)[C@H](Cc1c[nH]c2ccccc12)NC(=O)[C@H](C)NC(=O)[C@@H](NC(=O)[C@H](Cc1ccccc1)NC(=O)[C@H](CC(=O)O)NC(=O)[C@H](CCC(N)=O)NC(=O)[C@H](C)NC(=O)[C@H](CCCNC(=N)N)NC(=O)[C@H](CCCNC(=N)N)NC(=O)[C@H](CO)NC(=O)[C@H](CCC(=O)O)NC(=O)[C@H](CC(C)C)NC(=O)[C@H](Cc1ccc(O)cc1)NC(=O)[C@H](CCCCN)NC(=O)[C@H](CO)NC(=O)[C@H](Cc1ccc(O)cc1)NC(=O)[C@H](CC(=O)O)NC(=O)[C@H](CO)NC(=O)[C@@H](NC(=O)[C@H](Cc1ccccc1)NC(=O)[C@@H](NC(=O)CNC(=O)[C@H](CCC(N)=O)NC(=O)C(C)(C)NC(=O)[C@@H](N)Cc1c[nH]cn1)[C@@H](C)O)[C@@H](C)O)C(C)C)C(=O)N[C@@H](CCCCNC(=O)CC[C@H](NC(=O)CC[C@H](NC(=O)COCCOCCNC(=O)COCCOCCNC(=O)CC[C@H](NC(=O)CCCCCCCCCCCCCCCCC(=O)O)C(=O)O)C(=O)O)C(=O)O)C(=O)N[C@H](C(N)=O)[C@@H](C)O [Chem. 34, N^ε28-[(4S)-4-carboxy-4-[[(4S)-4-carboxy-4-[[2-[2-[2-[[2-[2-[2-[[(4S)-4-carboxy-4-(17-carboxyheptadecanoylamino)butanoyl]amino]ethoxy]ethoxy]acetyl]amino]ethoxy]ethoxy]acetyl]amino]butanoyl]amino]butanoyl]-[Aib2,Glu15,Ala24,Ile27,Lys28]-Glucagon amide] (H-H[Aib]QGTFTSDYSKYLESRRAQDFVAWLIK([γGlu-γGlu-AEEA-AEEA-γGlu-C18 diacid])T-NH2)",3

# More lines, now with the values ahead:
row,EC50 [pM],SMILES
1,2,"CC[C@H](C)[C@H](NC(=O)[C@H](CC(C)C)NC(=O)[C@H](Cc1c[nH]c2ccccc12)NC(=O)[C@H](C)NC(=O)[C@@H](NC(=O)[C@H](Cc1ccccc1)NC(=O)[C@H](CC(=O)O)NC(=O)[C@H](CCCNC(=N)N)NC(=O)[C@H](C)NC(=O)[C@H](CCCNC(=N)N)NC(=O)[C@H](CCCNC(=N)N)NC(=O)[C@H](C)NC(=O)[C@H](CC(=O)O)NC(=O)[C@H](CC(C)C)NC(=O)[C@H](Cc1ccc(O)cc1)NC(=O)[C@H](CCCCN)NC(=O)[C@H](CO)NC(=O)[C@H](Cc1ccc(O)cc1)NC(=O)[C@H](CC(=O)O)NC(=O)[C@H](CO)NC(=O)[C@@H](NC(=O)[C@H](Cc1ccccc1)NC(=O)[C@@H](NC(=O)CNC(=O)[C@H](CCC(N)=O)NC(=O)C(C)(C)NC(=O)[C@@H](N)Cc1c[nH]cn1)[C@@H](C)O)[C@@H](C)O)C(C)C)C(=O)N[C@@H](CCCCNC(=O)CC[C@H](NC(=O)CC[C@H](NC(=O)COCCOCCNC(=O)COCCOCCNC(=O)CC[C@H](NC(=O)CCCCCCCCCCCCCCCCC(=O)O)C(=O)O)C(=O)O)C(=O)O)C(=O)N[C@H](C(N)=O)[C@@H](C)O [Chem. 32, N^ε28-[(4S)-4-carboxy-4-[[(4S)-4-carboxy-4-[[2-[2-[2-[[2-[2-[2-[[(4S)-4-carboxy-4-(17-carboxyheptadecanoylamino)butanoyl]amino]ethoxy]ethoxy]acetyl]amino]ethoxy]ethoxy]acetyl]amino]butanoyl]amino]butanoyl]-[Aib2,Ala16,Arg20,Ala24,Ile27,Lys28]-Glucagon amide] (H-H[Aib]QGTFTSDYSKYLDARRARDFVAWLIK([γGlu-γGlu-AEEA-AEEA-γGlu-C18 diacid])T-NH2)"
2,3,"CC[C@H](C)[C@H](NC(=O)[C@H](CC(C)C)NC(=O)[C@H](Cc1c[nH]c2ccccc12)NC(=O)[C@H](CCCCNC(=O)COCCOCCNC(=O)COCCOCCNC(=O)CC[C@H](NC(=O)CC[C@H](NC(=O)CC[C@H](NC(=O)CCCCCCCCCCCCCCCCC(=O)O)C(=O)O)C(=O)O)C(=O)O)NC(=O)[C@@H](NC(=O)[C@H](Cc1ccccc1)NC(=O)[C@H](CCC(=O)O)NC(=O)[C@H](CCCNC(=N)N)NC(=O)[C@H](C)NC(=O)[C@H](CCCNC(=N)N)NC(=O)[C@H](CCCNC(=N)N)NC(=O)[C@H](C)NC(=O)[C@H](CC(=O)O)NC(=O)[C@H](CC(C)C)NC(=O)[C@H](Cc1ccc(O)cc1)NC(=O)[C@H](CCCCN)NC(=O)[C@H](CO)NC(=O)[C@H](Cc1ccc(O)cc1)NC(=O)[C@H](CC(=O)O)NC(=O)[C@H](CO)NC(=O)[C@@H](NC(=O)[C@H](Cc1ccccc1)NC(=O)[C@@H](NC(=O)CNC(=O)[C@H](CCC(N)=O)NC(=O)C(C)(C)NC(=O)[C@@H](N)Cc1c[nH]cn1)[C@@H](C)O)[C@@H](C)O)C(C)C)C(=O)N[C@@H](CO)C(=O)N[C@H](C(N)=O)[C@@H](C)O [Chem. 4, N^ε24-[2-[2-[2-[[2-[2-[2-[[(4S)-4-carboxy-4-[[(4S)-4-carboxy-4-[[(4S)-4-carboxy-4-(17-carboxyheptadecanoylamino)butanoyl]amino]butanoyl]amino]butanoyl]amino]ethoxy]ethoxy]acetyl]amino]ethoxy]ethoxy]acetyl]-[Aib2,Ala16,Arg20,Glu21,Lys24,Ile27,Ser28]-Glucagon amide] (H-H[Aib]QGTFTSDYSKYLDARRAREFVK([AEEA-AEEA-γGlu-γGlu-γGlu-C18 diacid])WLIST-NH2; N-terminus assumed)"
